Where two headings read alike, the source gives them in different places. One block for each molecule: values may come before it. Where a SMILES comes first, the peptide text is derived from it. Bridges are numbered along the chain shown (N, C = ends).
Columns and labels:
[1] = Pharmacokinetic study, intravenous, male CD-1 mice; format: in vivo
[2] = tested on: wild-type ETB; conditions: previous study; cited from earlier work
[3] = molecular target: T1, recombinant human ETB receptor (Homo sapiens, UniProt P24530); format: binding; conditions: Discussion
T1 sequence (P24530 27-442): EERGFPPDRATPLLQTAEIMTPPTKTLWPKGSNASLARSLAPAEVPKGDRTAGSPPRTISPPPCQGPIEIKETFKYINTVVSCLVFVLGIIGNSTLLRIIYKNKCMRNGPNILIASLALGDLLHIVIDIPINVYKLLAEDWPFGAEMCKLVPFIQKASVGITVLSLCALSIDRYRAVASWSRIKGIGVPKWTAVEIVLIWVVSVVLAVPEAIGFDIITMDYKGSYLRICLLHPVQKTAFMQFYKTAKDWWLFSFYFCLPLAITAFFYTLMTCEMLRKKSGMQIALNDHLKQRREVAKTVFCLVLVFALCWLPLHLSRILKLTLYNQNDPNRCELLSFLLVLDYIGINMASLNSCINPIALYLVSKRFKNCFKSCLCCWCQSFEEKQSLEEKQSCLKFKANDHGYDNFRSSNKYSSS

[4] = mouse, s9
[5] = molecular target: T2, human recombinant ETAR (Homo sapiens, UniProt P25101); conditions: competition binding
T2 sequence (P25101 21-427): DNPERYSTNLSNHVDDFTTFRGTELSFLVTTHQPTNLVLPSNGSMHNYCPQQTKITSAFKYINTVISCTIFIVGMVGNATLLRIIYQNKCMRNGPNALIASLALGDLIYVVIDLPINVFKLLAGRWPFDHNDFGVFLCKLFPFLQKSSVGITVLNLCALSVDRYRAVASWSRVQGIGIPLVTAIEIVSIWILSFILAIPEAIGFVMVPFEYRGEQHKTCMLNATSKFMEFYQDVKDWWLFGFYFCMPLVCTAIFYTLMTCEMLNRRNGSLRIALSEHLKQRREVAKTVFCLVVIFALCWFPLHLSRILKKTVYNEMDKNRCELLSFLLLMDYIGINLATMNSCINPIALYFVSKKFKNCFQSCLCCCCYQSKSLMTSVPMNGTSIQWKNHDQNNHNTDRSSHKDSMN

[6] = human, s9
[7] = molecular target: human endothelin type B receptor (ETB), in membranes of CHO cells (human) (UniProt P24530); experiment: radioligand binding

half-life compared with RES-701-3 ([1]; same experiment, IV, mice): nearly tenfold lower half-life
Molecule: CCCC[C@@H](NC(=O)[C@@H](Cc1cn(C(=O)OC)c2ccccc12)NC(=O)[C@H](CC(C)(C)C)NC(=O)N1[C@H](C)CCC[C@@H]1C)C(=O)O [BQ-788, Dmpc-γ-MeLeul-D-Trp(1-CO2CH3)-D-Nle-OH, reference compound]

Molecule: COc1ccccc1Oc1c(NS(=O)(=O)c2ccc(C(C)(C)C)cc2)nc(-c2ncccn2)nc1OCCO [Bosentan]
effect on receptor activation level of wild-type ETB [2]: does not change the receptor activation level

selectivity for ETB (ETB/ETA) [3]: 50 ×
Molecule: Cc1cc(C)cc(C(=O)N(C)[C@H](Cc2ccc(-c3ccccc3)cc2)C(=O)N[C@@H](Cc2c[nH]c3ccccc23)C(=O)O)c1 [IRL2500]

Molecule: C[C@@H](O)[C@@H]1NC(=O)CNC(=O)[C@H](Cc2c[nH]cn2)NC(=O)[C@H](Cc2c[nH]c3ccccc23)NC(=O)[C@H](CC(N)=O)NC(=O)CNC(=O)C[C@@H](C(=O)N[C@@H](Cc2c[nH]c3ccccc23)C(=O)N[C@@H](Cc2ccccc2)C(=O)N[C@@H](Cc2ccccc2)C(=O)N[C@@H](CC(N)=O)C(=O)N[C@@H](Cc2ccc(O)cc2)C(=O)N[C@@H](Cc2ccc(O)cc2)C(=O)N[C@@H](Cc2c[nH]c3ccccc23)C(=O)O)NC(=O)[C@@H]2CCCN2C(=O)[C@H](CO)NC1=O [RES-701-3] (GNWHGTSPDWFFNYYW-OH; lactam N-9 (inferred))
half-life [4]: > 6 h
activity against ETA [5]: no activity
half-life ([1]; mouse, in vivo, iv, 3 mg/kg, t1/2, 3 mg/kg IV, male CD-1 mice): > 6 h
half-life [6]: > 6 h

Molecule: RES-701-3 T6E (peptide)
fold reduction of affinity against RES-701-3 [7]: 50 fold
